The values below come from patent publication US7649012B2, “Compounds, pharmaceutical compositions containing same, and methods of use for same” (FASgen, Inc., priority 2002, dated 2010).

Molecules are shown by their SMILES. ≈ marks a conversion by molar mass, not a printed value.

The target in assay [1] is viral HIV protease (Human immunodeficiency virus type 1 group M subtype B, UniProt P04585). The following applies: cited from earlier work.
Assay [2] concerns Pseudomonas aeruginosa (ATCC # 27853). Kind of assay: Broth microdilution MIC. Type of assay: cell-based. The procedure:
(§1) A broth microdilution assay is used to assess the antimicrobial activity of the compounds. […] Microorganisms tested include Staphylococcus aureus (ATCC # 29213), Enterococcus faecalis (ATCC # 29212), Pseudomonas aeruginosa (ATCC # 27853), and Escherichia coli (ATCC # 25922). The assay is performed in two growth media, Mueller Hinton Broth and Trypticase Soy Broth. […] Colonies are suspended in sterile broth so that the turbidity matches the turbidity of a 0.5 McFarland standard. The inoculum is diluted 1:10 in sterile broth (Mueller Hinton or Trypticase soy) and 195 ul is dispensed per well of a 96-well plate. The compounds to be tested, dissolved in DMSO, are added to the wells in 5 ul volume at the following concentrations: 25, 12.5, 6.25, 3.125, 1.56 and 0.78 ug/ml in duplicate. Additional concentrations are tested if required. 5 ul of DMSO added to duplicate wells are the vehicle control. Serial dilutions of positive control compounds, vancomycin (E. faecalis and S. aureus) and tobramycin (E. coli and P. aeruginosa), are included in each run. After 24 hours of incubation at 37° C., plates are read at OD600 on a Molecular Devices SpectraMax Plus Spectrophotometer. Average OD600 values are computed using SOFTmax Pro Software (Molecular Devices) and MIC values are determined by linear regression analysis using Prism version 3.02 (Graph Pad Software, San Diego).
(In general: In broth dilution the organism is exposed to a series of concentrations in liquid medium.)

Assay [3] deals with Staphylococcus aureus (ATCC # 29213). Kind of assay: Broth microdilution MIC. Type of assay: cell-based. To be noted: Staphylococcus aureus, ATCC29213; Trypticase Soy Broth; read-out: SA/Tsoy(MIC). On the procedure:
as §1

The target in assay [4] is rat liver acyl-CoA synthetase. To be noted: read-out: 50% inhibition of rat liver acyl-CoA synthetase; cited from earlier work.
Assay [5] has as its system Raji cells. The following applies: cited from earlier work.
For assay [6], the system named is MCF-7 human breast cancer cells. Kind of assay: Crystal violet cell growth assay. Type of assay: cell-based. The following applies: MCF7, MCF-7, 72 hours, read-out: Cr. Violet(IC50). On the procedure:
The crystal violet assay measure cell growth but not cytotoxicity. This assay employs crystal violet staining of fixed cells in 96-well plates with subsequent solubilization and measurement of OD490 on a spectrophotometer. The OD490 corresponds to cell growth per unit time measured. Cells are treated with the compounds of interest or vehicle controls and IC50 for each compound is computed.
To measure the cytotoxicity of specific compounds against cancer cells, 5×10^4 MCF-7 human breast cancer cells, obtained from the American Type Culture Collection are plated per well in 24 well plates in DMEM medium with 10% fetal bovine serum, penicillin, and streptomycin. Following overnight culture at 37° C. and 5% CO2, the compounds to be tested, dissolved in DMSO, are added to the wells in 1 μl volume at the following concentrations: 50, 40, 30, 20, and 10 μg/ml in triplicate. Additional concentrations are tested if required. 1 μl of DMSO is added to triplicate wells are the vehicle control. C75 is run at 10, and 5 μg/ml in triplicate as positive controls.
After 72 hours of incubation, cells are stained with 0.5 ml of Crystal Violet stain (0.5% in 25% methanol) in each well. After 10 minutes, wells are rinsed, air dried, and then solubilized with 0.5 ml 10% sodium dodecylsulfate with shaking for 2 hours.

The test system is the same in assay [7]. Kind of assay: [14C]acetate incorporation into total lipids. Type of assay: cell-based. The following applies: [14C]acetate incorporation into lipids. On the procedure:
This assay measures the incorporation of [^14C]acetate into total lipids and is a measure of fatty acid synthesis pathway activity in vitro. It is utilized to measure inhibition of fatty acid synthesis in vitro.
MCF-7 human breast cancer cells cultured as above, are plated at 5×10^4 cells per well in 24-well plates. […] DMSO is added to triplicate wells for a vehicle control. C75 is run at 5 and 10 μg/ml in triplicate as positive controls. After 4 hours of incubation, 0.25 μCi of [^14C]acetate (10 μl volume) is added to each well.
After 2 hours of additional incubation, medium is aspirated from the wells and 800 μl of chloroform:methanol (2:1) and 700 μl of 4 mM MgCl2 is added to each well. Contents of each well are transferred to 1.5 Eppendorf tubes, and spun at full-speed for 2 minutes in a high-speed Eppendorf Microcentrifuge 5415D. After removal of the aqueous (upper) layer, an additional 700 μl of chloroform:methanol (2:1) and 500 μl of 4 mM MgCl2 are added to each tube and then centrifuged for 1 minutes as above. The aqueous layer is removed with a Pasteur pipette and discarded. An additional 400 μl of chloroform:methanol (2:1) and 200 μl of 4 mM MgCl2 are added to each tube, then centrifuged and aqueous layer is discarded. The lower (organic) phase is transferred into a scintillation vial and dried at 40° C. under N2 gas. Once dried, 3 ml of scintillant (APB #NBC5104) is added and vials are counted for ^14C. The Beckman Scintillation counter calculates the average cpm values for triplicates.
The IC50 for the compounds is defined as the concentration of drug leading to a 50% reduction in [^14C]acetate incorporation into lipids compared to controls. […] The average cpm values are computed by the Beckman scintillation counter (Model LS6500) for each compound concentration. Computation of linear regression, best-fit line, r^2, and 95% confidence intervals are calculated using Prism Version 3.0 (Graph Pad Software).

As to `C/C=C/C/C=C/CCC(=O)[C@H]1O[C@H]1C(N)=O` [cerulenin, (2S,3R)-2,3-epoxy-4-oxo-7,10 dodecadienoyl amide], the “concentration for inhibition of viral HIV protease” value in assay [1] was 5 mg/mL.
Consider `CCCCCCCC[C@@]1(C)SC(=O)C(C(=O)OC)=C1O` (racemic), for which the “PSAE/MH(MIC)” value in assay [2] (Mueller Hinton Broth) was “Neg”. Moreover, in assay [2] (Trypticase Soy Broth), the “PSAE/Tsoy(MIC)” value was “Neg”. Besides, the MIC in assay [3] was 23 µg/mL (≈ 76.6 µM).
Consider `CCCC=CCC=CC=CC=NN=NO` [Triacsin C, 1-hydroxy-3-(E, E, E-2′,4′,7′-undecatrienylidine) triazene], for which, in assay [4], the IC50 was 8.7 µM. Further, the “concentration causing growth inhibition in Raji cells” value in assay [5] is 1.0 µM.
For `C=CCOC1=C(C)C(=O)S[C@]1(C)CCCCCCCC` (racemic), the IC50 in assay [6] amounted to 15.1 µg/mL (≈ 50.9 µM). Besides, in assay [7], the “14C(IC50)” value is “Neg”.
